Measurements as given in PubChem BioAssay (NCI).
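Protocol summary: plate cells (96-well), add compound at 5 concentrations, incubate 48 h, interpolate endpoints linearly. Here, GI50 denotes the concentration required for 50% inhibition of growth. TGI is the concentration that stops growth completely.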

Assays:
Assay in all cases: NCI-60 cell line screen, 48 h
786-0 renal = test system: 786-0 renal
U251 CNS = test system: U251 CNS
HCC-2998 colon = test system: HCC-2998 colon
MDA-MB-435 = test system: MDA-MB-435
OVCAR-5 ovarian = test system: OVCAR-5 ovarian
NCI-H460 lung = test system: NCI-H460 lung
NCI-H226 lung = test system: NCI-H226 lung
HS 578T breast = test system: HS 578T breast
K-562 leukemia = test system: K-562 leukemia
SK-MEL-2 melanoma = test system: SK-MEL-2 melanoma

With `Nc1c(C(=O)c2cccc(-c3ccc[n+]([O-])c3)c2)cnn1-c1ccc(F)cc1F` the GI50 (786-0 renal) was over 25 µM, the TGI (786-0 renal) was over 25 µM and the GI50 (U251 CNS) was over 25 µM. For the same molecule, the TGI (U251 CNS) was over 25 µM, the GI50 (HCC-2998 colon) was over 25 µM and the TGI (HCC-2998 colon) was over 25 µM. For the same molecule, the GI50 (MDA-MB-435) was 15.2 µM, the TGI (MDA-MB-435) was over 25 µM and the GI50 (OVCAR-5 ovarian) was over 25 µM. For the same molecule, the TGI (OVCAR-5 ovarian) was over 25 µM, the GI50 (NCI-H460 lung) was over 25 µM and the TGI (NCI-H460 lung) was over 25 µM. It also gave a GI50 (NCI-H226 lung) of over 25 µM, a TGI (NCI-H226 lung) of over 25 µM and a GI50 (HS 578T breast) of over 25 µM. For the same molecule, the TGI (HS 578T breast) was over 25 µM, the GI50 (K-562 leukemia) was over 25 µM and the TGI (K-562 leukemia) was over 25 µM. The GI50 (SK-MEL-2 melanoma) was over 25 µM and the TGI (SK-MEL-2 melanoma) was over 25 µM.

For `O=C1c2ccccc2-c2c1c1ccc([N+](=O)[O-])cc1c(=O)n2CCNCCCNCCn1c2c(c3ccc([N+](=O)[O-])cc3c1=O)C(=O)c1ccccc1-2`, the GI50 (786-0 renal) was 0.0515 µM, the TGI (786-0 renal) was 2.92 µM and the GI50 (U251 CNS) was 0.166 µM. For the same molecule, the TGI (U251 CNS) was 3.63 µM, the GI50 (HCC-2998 colon) was 0.992 µM and the TGI (HCC-2998 colon) was 13.3 µM. For the same molecule, the GI50 (MDA-MB-435) was 1.39 µM, the TGI (MDA-MB-435) was 18.1 µM and the GI50 (OVCAR-5 ovarian) was 0.673 µM. The TGI (OVCAR-5 ovarian) was 6.42 µM, the GI50 (NCI-H460 lung) was 2.68 µM and the TGI (NCI-H460 lung) was 18.7 µM. The GI50 (NCI-H226 lung) was 0.125 µM, the TGI (NCI-H226 lung) was 3.16 µM and the GI50 (HS 578T breast) was 1.34 µM. The TGI (HS 578T breast) was 31.4 µM, the GI50 (K-562 leukemia) was 0.0492 µM and the TGI (K-562 leukemia) was 28.2 µM. It also gave a GI50 (SK-MEL-2 melanoma) of 4 µM and a TGI (SK-MEL-2 melanoma) of 21.7 µM.

For `COc1cc(C(=O)/C=C/c2c(-c3ccc(F)cc3)nc3sc(C)cn23)cc(OC)c1OC`, the GI50 (786-0 renal) was 8.88 µM, the TGI (786-0 renal) was over 100 µM and the GI50 (U251 CNS) was 4.07 µM. The TGI (U251 CNS) was over 100 µM, the GI50 (HCC-2998 colon) was 9.93 µM and the TGI (HCC-2998 colon) was over 100 µM. It also gave a GI50 (MDA-MB-435) of 1.75 µM, a TGI (MDA-MB-435) of 6.92 µM and a GI50 (OVCAR-5 ovarian) of over 100 µM. It also gave a TGI (OVCAR-5 ovarian) of over 100 µM, a GI50 (NCI-H460 lung) of 3.87 µM and a TGI (NCI-H460 lung) of over 100 µM. The GI50 (NCI-H226 lung) was 9.58 µM, the TGI (NCI-H226 lung) was over 100 µM and the GI50 (HS 578T breast) was 8.29 µM. It also gave a TGI (HS 578T breast) of over 100 µM, a GI50 (K-562 leukemia) of 5.46 µM and a TGI (K-562 leukemia) of over 100 µM. It also gave a GI50 (SK-MEL-2 melanoma) of 5.75 µM and a TGI (SK-MEL-2 melanoma) of over 100 µM.

`C=C(C)C(=O)OC1CC2(C)OC2CC(OC(C)=O)/C(C)=C/C2OC(=O)C(=C)C21` (configuration not stated) showed a TGI (786-0 renal) of 6.37 µM, a TGI (U251 CNS) of 25.1 µM and a TGI (HCC-2998 colon) of 15.1 µM. It also gave a TGI (MDA-MB-435) of 7.5 µM, a TGI (OVCAR-5 ovarian) of 17.5 µM and a TGI (NCI-H460 lung) of 9.29 µM. For the same molecule, the TGI (NCI-H226 lung) was 48 µM, the TGI (HS 578T breast) was 30.6 µM and the TGI (K-562 leukemia) was 4.62 µM. It also gave a TGI (SK-MEL-2 melanoma) of 18.1 µM.

Work on `CN(C)c1ccc(C(=O)c2ccc(N(C)C)c(N)c2)cc1N` yielded a GI50 (786-0 renal) of 9.74 µM, a TGI (786-0 renal) of over 91.5 µM and a GI50 (U251 CNS) of 2.79 µM. It also gave a TGI (U251 CNS) of over 100 µM, a GI50 (HCC-2998 colon) of 3.9 µM and a TGI (HCC-2998 colon) of 39.3 µM. It also gave a GI50 (MDA-MB-435) of 0.422 µM, a TGI (MDA-MB-435) of 1.25 µM and a GI50 (OVCAR-5 ovarian) of 15.8 µM. It also gave a TGI (OVCAR-5 ovarian) of over 100 µM, a GI50 (NCI-H460 lung) of 2.62 µM and a TGI (NCI-H460 lung) of 34.5 µM. It also gave a GI50 (NCI-H226 lung) of 16.8 µM, a TGI (NCI-H226 lung) of over 82.5 µM and a GI50 (HS 578T breast) of 1.75 µM. The TGI (HS 578T breast) was over 21.2 µM, the GI50 (K-562 leukemia) was 0.867 µM and the TGI (K-562 leukemia) was over 86.5 µM. The GI50 (SK-MEL-2 melanoma) was 4.3 µM and the TGI (SK-MEL-2 melanoma) was over 100 µM.

`COc1ccc(Nc2ncccc2/C=C/C(=O)c2cc(OC)c(OC)c(OC)c2)cc1` was tested, and the GI50 (786-0 renal) was 1.69 µM, the TGI (786-0 renal) was 3.22 µM and the GI50 (U251 CNS) was 1.27 µM. It also gave a TGI (U251 CNS) of 2.52 µM, a GI50 (HCC-2998 colon) of 1.68 µM and a TGI (HCC-2998 colon) of 3.09 µM. It also gave a GI50 (MDA-MB-435) of 1.46 µM, a TGI (MDA-MB-435) of 3.36 µM and a GI50 (OVCAR-5 ovarian) of 1.97 µM. For the same molecule, the TGI (OVCAR-5 ovarian) was 3.83 µM, the GI50 (NCI-H460 lung) was 2.01 µM and the TGI (NCI-H460 lung) was 4.25 µM. The GI50 (NCI-H226 lung) was 1.37 µM, the TGI (NCI-H226 lung) was 2.81 µM and the GI50 (HS 578T breast) was 2.68 µM. For the same molecule, the TGI (HS 578T breast) was 9.6 µM, the GI50 (K-562 leukemia) was 0.783 µM and the TGI (K-562 leukemia) was 3.51 µM. The GI50 (SK-MEL-2 melanoma) was 1.47 µM and the TGI (SK-MEL-2 melanoma) was 2.99 µM.

For `COc1ccc(C(O)c2cc3c(N)c(C(=O)Nc4cccc(Cl)c4C)sc3nc2C)cc1` (configuration not stated), the GI50 (786-0 renal) was 0.786 µM, the TGI (786-0 renal) was 1.53 µM and the GI50 (U251 CNS) was 0.797 µM. For the same molecule, the TGI (U251 CNS) was 1.57 µM, the GI50 (HCC-2998 colon) was 0.444 µM and the TGI (HCC-2998 colon) was 1.16 µM. For the same molecule, the GI50 (MDA-MB-435) was 0.825 µM, the TGI (MDA-MB-435) was 1.56 µM and the GI50 (OVCAR-5 ovarian) was 0.932 µM. The TGI (OVCAR-5 ovarian) was 1.92 µM, the GI50 (NCI-H460 lung) was 0.834 µM and the TGI (NCI-H460 lung) was 1.73 µM. The GI50 (NCI-H226 lung) was 1.04 µM, the TGI (NCI-H226 lung) was 3.15 µM and the GI50 (HS 578T breast) was 0.774 µM. The TGI (HS 578T breast) was 1.79 µM, the GI50 (K-562 leukemia) was 0.198 µM and the TGI (K-562 leukemia) was 1.45 µM. It also gave a GI50 (SK-MEL-2 melanoma) of 0.909 µM and a TGI (SK-MEL-2 melanoma) of 1.84 µM.

In the case of `CN(C)C(=S)NN=C(c1ccccn1)c1ccccn1`, the GI50 (786-0 renal) is reported as under 0.0232 µM, the TGI (786-0 renal) is reported as 1.26 µM and the GI50 (U251 CNS) is reported as under 0.01 µM. It also gave a TGI (U251 CNS) of over 59.4 µM, a GI50 (HCC-2998 colon) of 0.0327 µM and a TGI (HCC-2998 colon) of 21.2 µM. For the same molecule, the GI50 (MDA-MB-435) was 0.076 µM, the TGI (MDA-MB-435) was 16.7 µM and the GI50 (OVCAR-5 ovarian) was 0.045 µM. The TGI (OVCAR-5 ovarian) was 27.4 µM, the GI50 (NCI-H460 lung) was under 0.025 µM and the GI50 (NCI-H226 lung) was 0.0445 µM. The TGI (NCI-H226 lung) was 12.7 µM, the TGI (HS 578T breast) was over 55.4 µM and the TGI (K-562 leukemia) was over 100 µM. It also gave a GI50 (SK-MEL-2 melanoma) of 0.106 µM and a TGI (SK-MEL-2 melanoma) of 4.2 µM.

In the case of `O=C(Cn1c(=O)c(-c2ccccc2)nc2ccccc21)c1cccnc1`, the GI50 (786-0 renal) is reported as over 100 µM, the TGI (786-0 renal) is reported as over 100 µM and the GI50 (U251 CNS) is reported as over 100 µM. It also gave a TGI (U251 CNS) of over 100 µM, a GI50 (HCC-2998 colon) of over 100 µM and a TGI (HCC-2998 colon) of over 100 µM. It also gave a GI50 (MDA-MB-435) of over 100 µM, a TGI (MDA-MB-435) of over 100 µM and a GI50 (OVCAR-5 ovarian) of over 100 µM. It also gave a TGI (OVCAR-5 ovarian) of over 100 µM, a GI50 (NCI-H460 lung) of over 100 µM and a TGI (NCI-H460 lung) of over 100 µM. The GI50 (NCI-H226 lung) was over 100 µM, the TGI (NCI-H226 lung) was over 100 µM and the GI50 (HS 578T breast) was over 100 µM. For the same molecule, the TGI (HS 578T breast) was over 100 µM, the GI50 (K-562 leukemia) was over 100 µM and the TGI (K-562 leukemia) was over 100 µM. It also gave a GI50 (SK-MEL-2 melanoma) of over 100 µM and a TGI (SK-MEL-2 melanoma) of over 100 µM.

`CNc1nc(C)c(-c2nc(Nc3cccc(S(N)(=O)=O)c3)ncc2F)s1` gave a GI50 (786-0 renal) of 0.0248 µM, a TGI (786-0 renal) of 3.42 µM and a GI50 (U251 CNS) of 0.0268 µM. The TGI (U251 CNS) was 11.5 µM, the GI50 (HCC-2998 colon) was 0.0408 µM and the TGI (HCC-2998 colon) was 2.48 µM. The GI50 (MDA-MB-435) was 0.0379 µM, the TGI (MDA-MB-435) was 2.45 µM and the GI50 (OVCAR-5 ovarian) was 0.0324 µM. For the same molecule, the TGI (OVCAR-5 ovarian) was 15.1 µM, the GI50 (NCI-H460 lung) was 0.0776 µM and the TGI (NCI-H460 lung) was 3.89 µM. For the same molecule, the GI50 (NCI-H226 lung) was 0.0219 µM, the TGI (NCI-H226 lung) was 3.54 µM and the GI50 (HS 578T breast) was 0.0429 µM. For the same molecule, the TGI (HS 578T breast) was 3.97 µM, the GI50 (K-562 leukemia) was 0.0668 µM and the TGI (K-562 leukemia) was 24.4 µM. It also gave a GI50 (SK-MEL-2 melanoma) of 0.0358 µM and a TGI (SK-MEL-2 melanoma) of 0.0939 µM.

With `O=C(Nc1c(Cl)cc([N+](=O)[O-])cc1Cl)C(=O)C1C(=O)NC(=S)NC1=O` the TGI (786-0 renal) was over 100 µM, the TGI (U251 CNS) was over 100 µM and the TGI (HCC-2998 colon) was over 100 µM. It also gave a TGI (MDA-MB-435) of over 100 µM, a TGI (OVCAR-5 ovarian) of over 100 µM and a TGI (NCI-H460 lung) of over 100 µM. The TGI (NCI-H226 lung) was over 100 µM, the TGI (HS 578T breast) was over 100 µM and the TGI (K-562 leukemia) was over 100 µM. It also gave a TGI (SK-MEL-2 melanoma) of over 100 µM.
